“Also recorded” adds a separate entry of the source.
Key:
KRAS mutant cell lines = assay: Clonogenic 2D assay, KRAS-mutant and PDAC lines; format: cell-based, human; details: HPNE-KRAS^G12D, HEKT/tH-KRAS^G12V, conventional PDAC lines, PDCLs
Description: (§1) Cells were seeded at 500-1000 cells per well (6 well plate format) or 200-1000 cells per well (12 well format) in 10% serum media. For drug treatment, compound was added at time of seeding at indicated concentration. Media was replenished as needed over course of incubation. After 3-5 weeks, colonies were fixed with 4% formaldehyde, stained with 0.5% crystal violet and scanned using document scanner. Images were quantified using particle analyzer on ImageJ software and values were normalized to vehicle.

[1] = system: poly (ADP-ribose) polymerase (PARP); assay: Immunoblot of PARP cleavage; format: cell-based, human; details: PDAC lines; cotreatment with SN-38, 16 hours
Description: Standard immunoblotting procedure was followed. Cells were washed twice with ice-cold 1×PBS and lysed with ice-cold triton-X lysis buffer (25 mM Tris, pH 7.4, 150 mM NaCl, 5 mM EDTA, 1% Triton-X) containing 1× protease (10 μg mL-1 leupeptin, 700 ng mL-1 pepstatin, 170 ng mL-1 aprotinin, 1 mM PMSF) and phosphatase (10 mM NaF, 1 mM Na3VO4, 1 mM Na4P2O^7, 5 mM Na b-glycerophosphate) inhibitors. Lysates were quantified by Bradford assay (Thermo Scientific), normalized for concentration, and reduced and denatured with 6×SDS sample buffer followed by boiling for 5 minutes. 20-40 μg of protein per sample was resolved by SDS-PAGE, blotted on PVDF membrane and probed with primary antibodies (Cell Signaling Technologies: p-ERK1/2 (#4370), p-MEK1/2 (#9154), ERK1/2 (#4695), MEK1/2 (#8727), p-p105 (#4806), NFS2KB1 p105/p50 (#3035), p-IRAK4 (#11927), IRAK4 (#4363), ubiquitin (#43124), anti-HA (#3724), p-p90RSK (#11989), RSK1/2/3 (#9355), p-TPL2 (#4491), PARP (#9532), p-B-RAF S445 (#2696), BRAF (#9433S). Santa Cruz Biotechnology: GAPDH (#sc-32233), p-p65 S536 (#sc101752). Thermo Fisher Scientific: p-55 TPL2 (#PA5-36635). EMD Millipore: IRAK4 (#07-418). R&D systems: TPL2/MAP3K8 (#MAB4586). Novus Biologicals: anti-AU1 (#NB600-453). Abcam: p-p65 S276 (#ab194726)). […]

[2] = system: HPNE-KRAS^G12D cells, HEKT/tH-KRAS^G12V cells, conventional PDAC lines, and PDCLs; assay: Anchorage independent soft agar growth assay, human KRAS-mutant lines; format: cell-based; details: HPNE-KRAS^G12D, HEKT/tH-KRAS^G12V, conventional PDAC lines, PDCLs
Description: Cells were seeded at 5000-15000 cells in 0.3% noble agar-DMEM suspension per well, in triplicate, in 24 well plate. For drug treatment, compound was added to cell suspension at 1× concentration. Seeded cells were fed with fresh 0.6% agar-DMEM mix once every 7-12 days. […] After 3-6 weeks, colonies were counted under microscope and imaged. Colony count was normalized to control and graphed in GraphPad Prism v7/8.

NF-κB reporter activity = assay: NF-κB luciferase reporter assay; format: cell-based, human; details: KRAS-mutant PDAC cells (PANC-1); serial dilutions from 20 μM; 18 hours
Description: (§2) Cells stably expressing plasmid encoding serum-response-element (SRE) or NFKB promoter driven Firefly luciferase and constitutive Renilla luciferase were seeded at equal density per well and treatment was initiated the next day for 16-24 duration. Alternatively, 293T reporter cells were transfected in duplicate or triplicate with 1 μg of appropriate plasmid DNA. Medium was replaced 16-18 hours later and at 48 hours post-transfection reporter activity was measured using Dual-Glo® Luciferase Assay System. Data was acquired using SpectraMax i3Microplate Reader and analysis was performed by calculating ratio of firefly:renilla. Values were normalized to control and graphed using GraphPad Prism v7/8 software.

IGROV1 cells [3] = assay: Cell proliferation assay, IGROV1; format: cell-based, human
Description: (§3) Cells were seeded in triplicate or quadruplicate at indicated density per well. When applicable, appropriate drug compound was added to cells the next day. Viable cells were counted using trypan blue dye exclusion and BioRad TC20 Automated Cell Counter at each time point.

IGROV1 cells [4] = assay: Clonogenic 2D assay, IGROV1; format: cell-based, human
Description: as §1

[5] = system: serum-response element (SRE); assay: Serum-response element (SRE) luciferase reporter assay; format: cell-based, human
Description: as §2

p-p105, p-p65 = assay: Immunoblots of NF-κB markers in PDAC cells; format: cell-based, human
Description: (§4) Standard immunoblotting procedure was followed. Cells were washed twice with ice-cold 1×PBS and lysed with ice-cold triton-X lysis buffer (25 mM Tris, pH 7.4, 150 mM NaCl, 5 mM EDTA, 1% Triton-X) containing 1× protease (10 μg mL-1 leupeptin, 700 ng mL-1 pepstatin, 170 ng mL-1 aprotinin, 1 mM PMSF) and phosphatase (10 mM NaF, 1 mM Na3VO4, 1 mM Na4P2O^7, 5 mM Na b-glycerophosphate) inhibitors. Lysates were quantified by Bradford assay (Thermo Scientific), normalized for concentration, and reduced and denatured with 6×SDS sample buffer followed by boiling for 5 minutes. 20-40 μg of protein per sample was resolved by SDS-PAGE, blotted on PVDF membrane and probed with primary antibodies (Cell Signaling Technologies: p-ERK1/2 (#4370), p-MEK1/2 (#9154), ERK1/2 (#4695), MEK1/2 (#8727), p-p105 (#4806), NFS2KB1 p105/p50 (#3035), p-IRAK4 (#11927), IRAK4 (#4363), ubiquitin (#43124), anti-HA (#3724), p-p90RSK (#11989), RSK1/2/3 (#9355), p-TPL2 (#4491), PARP (#9532), p-B-RAF S445 (#2696), BRAF (#9433S). Santa Cruz Biotechnology: GAPDH (#sc-32233), p-p65 S536 (#sc101752). Thermo Fisher Scientific: p-55 TPL2 (#PA5-36635). EMD Millipore: IRAK4 (#07-418). R&D systems: TPL2/MAP3K8 (#MAB4586). Novus Biologicals: anti-AU1 (#NB600-453). Abcam: p-p65 S276 (#ab194726)). Membranes were incubated with appropriate HRP-conjugated secondary antibodies (anti-mouse or anti-rabbit, (1:5000 dilution), Jackson Laboratory) and imaged using chemiluminescent substrate. Additional steps for immunoprecipitation include incubation of soluble fraction lysate with anti-HA magnetic beads (Thermo Scientific cat #88837) overnight at 4° C., washing, and elution using 1×SDS sample buffer and boiling as mentioned in manufacturer's protocol.

Hs695T cells [6] = assay: Drug response and viability assay, Hs695T; format: cell-based, human
Description: Cells were seeded at 1500-2500 cells per well in triplicates, in 96 well format. Next day, appropriate inhibitor was added in serial dilution from 1.00×102 μM or indicated single doses. Vehicle (DMSO) was added to match volume of inhibitor used for highest concentration. After 96-120 hours, 5× AlamarBlue® reagent (resazurin sodium salt, Sigma) was added to wells and incubated for 2-4 hours. Fluorescence at 585 nm (excitation 555 nm) was measured by SpectraMax i3 Microplate Reader. Raw values were normalized to vehicle, analyzed and graphed using GraphPad Prism v7/8 software.

[7] = system: LPS-induced TNF-α production; details: human monocytes; cited from earlier work
Hs695T cells [8] = assay: Cell proliferation assay, Hs695T; format: cell-based, human
Description: as §3

orthotopic KI tumors = assay: Orthotopic implantation of murine KI PDAC cells; format: in vivo; details: KI tumors in syngeneic FVB/NJ mice; 30 mg/kg, 14 days
Description: For subcutaneous xenograft, approximately 5 million cells per flank were implanted into 6-week-old athymic nude mice (NU/J, Jackson Laboratory). When applicable, treatment with drug compound was initiated when tumors were palpable. FIRINOX (25 mg/kg 5-FU, 17.5 mg/kg irinotecan, and 3.35 mg/kg oxaliplatin) was administered via intraperitoneal injection weekly in 50 μL PBS. TPL2i was administered by intraperitoneal injection at 10 mg/kg in 40 μL DMSO, 5 days per week. Mice in the control group were treated with vehicle. Tumor volume was calculated as width^2×(length×0.5). Tumors were measured and mice were weighed 3 days per week. For orthotopic implantation, murine KI PDAC cells were injected into the pancreas of 7-week-old female FVB/NJ mice (Jackson Laboratory), as previously described (see e.g., Kim et al. (2009) Nat Protoc. 4 (11): 1670-1680). Six days after implantation, treatment with vehicle, FIRINOX (same dose as above), or TPL2i (30 mg/kg) was initiated for 14 days, at which time all mice were sacrificed. In vivo tumor progression was monitored using ultrasound (VScan, GE Healthcare) with final day representative tumor images shown.

p-MEK, p-ERK, and p-RSK = assay: Immunoblots of MAPK pathway markers in human cell lines; format: cell-based; details: for p-MEK and p-ERK levels: serum-free
Description: as §4

[9] = HPAC cells, 16 hours, 10% serum

N#Cc1cnc2cnc(NCc3cccnc3)cc2c1Nc1ccc(F)c(Cl)c1 [TPL2i, 4-[(3-Chloro-4-fluorophenyl)amino]-6-[(3-pyridinylmethyl)amino]-1,7-naphthyridine-3-carbonitrile]
2D clonogenic growth (KRAS mutant cell lines): dose-dependently suppressed | PARP cleavage [1]: increased | 3-dimensional (3D) AI growth [2]: dose-dependently suppressed | NF-κB reporter activity (NF-κB reporter activity): dose-dependently suppressed | proliferation (IGROV1 cells [3]): significantly decreased | colony forming ability (IGROV1 cells [4]): significantly decreased | Gemcitabine-induced SRE activity [5, 9]: suppressible | SRE reporter activity (MAPK cascades) ([5]; KRAS-mutant HPAC, MIA Paca-2, and Pa01C cells): dose-dependently suppressed | p-p65 at S276 (p-p105, p-p65; 3 out of 4 cell lines): potently suppressed | p50 processing (p-p105, p-p65; PDAC cell lines): did not lead to increased p50 processing | p-p65 at S536 (p-p105, p-p65; PDAC cell lines): not | p-p105 (p-p105, p-p65; PDAC cell lines, TPL2 inhibition): dose-dependently suppressed | p-p105 in SN-38-treated cells (p-p105, p-p65; Pa01C cells): additionally suppressed | viability (Hs695T cells [6]): suppressed | LPS-induced TNF-α production [7]: can suppress | in vitro proliferation (Hs695T cells [8]): significantly suppressed | growth of orthotopic tumors (orthotopic KI tumors): effective in significantly suppressing growth | p-MEK and p-ERK levels (p-MEK, p-ERK, and p-RSK; 293T cells expressing KRAS^G12V, 24 hours): dose-dependently suppressed | p-MEK and p-ERK (p-MEK, p-ERK, and p-RSK; 293T cells transfected with oncogenic BRAF^V600E, 24 hours): neither TPL2i nor IRAK4i suppressed | p-MEK and p-ERK / MAPK activity (p-MEK, p-ERK, and p-RSK; BxPc-3 PDAC line (BRAF mutation, WT KRAS)): neither TPL2i nor IRAK4i suppressed and not | conditioned medium-induced p-TPL2, p-IRAK4, p-MEK, and p-ERK levels (p-MEK, p-ERK, and p-RSK; HEK T/tH cells with CM from HEK-T/tH KRAS^G12V cells): completely blocked | Gemcitabine-induced p-MEK and p-ERK levels (p-MEK, p-ERK, and p-RSK; [9]): suppressible | p-ERK and p-MEK / MAPK activity (p-MEK, p-ERK, and p-RSK; Hs695T cells (BRAF^V600E, MAP3K8^E188K), 24 hours, 10% serum): significantly suppressed | p-MEK, p-ERK, and p-RSK / MAPK activity (p-MEK, p-ERK, and p-RSK; IGROV1 (MAP3K8^R442H), 1 μM, 2 hours): completely blocked; also recorded: completely abolished | SN-38-induced p-MEK, p-ERK, and p-RSK (p-MEK, p-ERK, and p-RSK; PDAC lines, cotreatment, 16 hours): significantly attenuated | p-BRAF (p-MEK, p-ERK, and p-RSK; Pa01C cells, incremental doses): without affecting | p-MEK and p-ERK (p-MEK, p-ERK, and p-RSK; Pa01C cells, incremental doses): dose-dependently blocked | p-MEK and p-ERK levels (p-MEK, p-ERK, and p-RSK; multiple KRAS-mutant PDAC lines, 36 hours): dose-dependently suppressed
